Source: US20240109972A1, “ANTIBODY AND TAXANE COMBINATION THERAPY” (Genmab A/S, priority 2020, published 2024)

Test system: solid malignant tumors
Assay: GEN1046 Phase I dose escalation (NCT03917381), response by RECIST v1.1
Format: in vivo, human
Conditions: for BOR Stable Disease, (percent) / BOR Stable Disease, patients / BOR Complete Response, (percent) / BOR Complete Response, patients / BOR Progressive Disease, (percent) / BOR Progressive Disease, patients / BOR Partial Response, (percent) / BOR Partial Response, patients: 3 Feb. 2020
Source text: The resistance to, failure to respond to and/or relapse from treatment with a binding agent of the invention and/or other therapeutic agent(s) may be determined according to the Response Evaluation Criteria In Solid Tumors; version 1.1 (RECIST Criteria v1.1).
The “best overall response” is the best response recorded from the start of the treatment until disease progression/recurrence (the smallest measurements recorded since the treatment started will be used as the reference for PD). Subjects with CR or PR are considered to be objective response. Subjects with CR, PR or SD are considered to be in disease control. Subjects with NE are counted as non-responders. […]
Clinical trial on GCT1046-01 (ClinicalTrials.gov Identifier: NCT03917381) was designed as a two-part trial, including an ongoing dose escalation part and a planned expansion part.
The trial consists of 2 parts; a First-in-Human (FIH) dose escalation (Phase I) and an expansion (Phase 11a).
For dose escalation, subject was required to be a man or […] and was required to have measurable disease according to RECIST 1.1.

GEN1046: PD-L1×4-1BB bispecific antibody: PD-L1-547-FEAL combined with CD137-009-HC7LC2-FEAR (SEQ ID NOs: 1, 5, 21, 19; 8, 12, 22, 20)
7: Confirmed Disease Control (PR + PR + SD) Rate, patients (400 mg (N 9), Oct. 12, 2020) | Confirmed SD (Stable Disease), patients (400 mg (N 9), Oct. 12, 2020) | Disease Control (PR + PR + SD) Rate, patients (400 mg (N 9), Oct. 12, 2020)
11.1%: Confirmed NE (Not Evaluable), % of patients (200 mg (N 9), Oct. 12, 2020) | NE (Not Evaluable), % of patients (200 mg (N 9), Oct. 12, 2020) | Objective Response (CR + PR) Rate, % (200 mg (N 9), Oct. 12, 2020) | PR (Partial Response), % of patients (200 mg (N 9), Oct. 12, 2020)
(62.5): BOR Stable Disease, (percent) (200 mg (n = 8))
1: Confirmed NE (Not Evaluable), patients (200 mg (N 9), Oct. 12, 2020) | NE (Not Evaluable), patients (200 mg (N 9), Oct. 12, 2020) | Objective Response (CR + PR) Rate, patients (200 mg (N 9), Oct. 12, 2020) | PR (Partial Response), patients (200 mg (N 9), Oct. 12, 2020)
0: BOR Stable Disease, patients (140 mg (n = 1)) | CR (Complete Response), patients (200 mg (N 9), Oct. 12, 2020) | Confirmed CR (Complete Response), patients (200 mg (N 9), Oct. 12, 2020) | Confirmed Objective Response (CR + PR) Rate, patients (200 mg (N 9), Oct. 12, 2020) | Confirmed PR (Partial Response), patients (200 mg (N 9), Oct. 12, 2020) | BOR Complete Response, patients (200 mg (n = 8)) | CR (Complete Response), patients (400 mg (N 9), Oct. 12, 2020) | Confirmed CR (Complete Response), patients (400 mg (N 9), Oct. 12, 2020) | Confirmed NE (Not Evaluable), patients (400 mg (N 9), Oct. 12, 2020) | Confirmed Objective Response (CR + PR) Rate, patients (400 mg (N 9), Oct. 12, 2020) | Confirmed PR (Partial Response), patients (400 mg (N 9), Oct. 12, 2020) | NE (Not Evaluable), patients (400 mg (N 9), Oct. 12, 2020) | Objective Response (CR + PR) Rate, patients (400 mg (N 9), Oct. 12, 2020) | PR (Partial Response), patients (400 mg (N 9), Oct. 12, 2020) | BOR Complete Response, patients (400 mg (n = 6)) | BOR Partial Response, patients (400 mg (n = 6)) | BOR Progressive Disease, patients (400 mg (n = 6)) | CR (Complete Response), patients (800 mg (N 9), Oct. 12, 2020) | Confirmed CR (Complete Response), patients (800 mg (N 9), Oct. 12, 2020) | Confirmed Objective Response (CR + PR) Rate, patients (800 mg (N 9), Oct. 12, 2020)
(0): BOR Stable Disease, (percent) (140 mg (n = 1)) | BOR Complete Response, (percent) (200 mg (n = 8)) | BOR Complete Response, (percent) (400 mg (n = 6)) | BOR Partial Response, (percent) (400 mg (n = 6)) | BOR Progressive Disease, (percent) (400 mg (n = 6))
22.2%: Confirmed PD (Progressive Disease), % of patients (200 mg (N 9), Oct. 12, 2020) | PD (Progressive Disease), % of patients (200 mg (N 9), Oct. 12, 2020) | Confirmed PD (Progressive Disease), % of patients (400 mg (N 9), Oct. 12, 2020) | PD (Progressive Disease), % of patients (400 mg (N 9), Oct. 12, 2020) | Confirmed NE (Not Evaluable), % of patients (800 mg (N 9), Oct. 12, 2020) | Confirmed PD (Progressive Disease), % of patients (800 mg (N 9), Oct. 12, 2020)
(25): BOR Progressive Disease, (percent) (200 mg (n = 8))
5: BOR Stable Disease, patients (200 mg (n = 8)) | Confirmed Disease Control (PR + PR + SD) Rate, patients (800 mg (N 9), Oct. 12, 2020)
1^1: BOR Partial Response, patients (200 mg (n = 8), uPR)
(100): BOR Stable Disease, (percent) (400 mg (n = 6))
66.7%: Confirmed Disease Control (PR + PR + SD) Rate, % (200 mg (N 9), Oct. 12, 2020) | Confirmed SD (Stable Disease), % of patients (200 mg (N 9), Oct. 12, 2020) | Disease Control (PR + PR + SD) Rate, % (200 mg (N 9), Oct. 12, 2020)
2: Confirmed PD (Progressive Disease), patients (200 mg (N 9), Oct. 12, 2020) | PD (Progressive Disease), patients (200 mg (N 9), Oct. 12, 2020) | BOR Progressive Disease, patients (200 mg (n = 8)) | Confirmed PD (Progressive Disease), patients (400 mg (N 9), Oct. 12, 2020) | PD (Progressive Disease), patients (400 mg (N 9), Oct. 12, 2020) | Confirmed NE (Not Evaluable), patients (800 mg (N 9), Oct. 12, 2020)
(12.5): BOR Partial Response, (percent) (200 mg (n = 8), uPR)
55.6%: Confirmed Disease Control (PR + PR + SD) Rate, % (800 mg (N 9), Oct. 12, 2020)
6: Confirmed Disease Control (PR + PR + SD) Rate, patients (200 mg (N 9), Oct. 12, 2020) | Confirmed SD (Stable Disease), patients (200 mg (N 9), Oct. 12, 2020) | Disease Control (PR + PR + SD) Rate, patients (200 mg (N 9), Oct. 12, 2020) | BOR Stable Disease, patients (400 mg (n = 6))
77.8%: Confirmed Disease Control (PR + PR + SD) Rate, % (400 mg (N 9), Oct. 12, 2020) | Confirmed SD (Stable Disease), % of patients (400 mg (N 9), Oct. 12, 2020) | Disease Control (PR + PR + SD) Rate, % (400 mg (N 9), Oct. 12, 2020)
